Counter-ions that a name gives are not always drawn.
Structure (SMILES) | melting point [°C]
FC(F)(F)c1cccc(-c2c[nH]c([C@@H](NCC3CCCCC3)C3CCCCC3)n2)c1 (as salt: hydrochloride) [Example 307, (S)-1-cyclohexyl-N-(cyclohexylmethyl)-1-{4-[3-(trifluoromethyl)-phenyl]-1H-imidazol-2-yl}methanamine] | 198 to 200
CN(Cc1ccccc1)[C@H](Cc1c[nH]c2ccccc12)c1nc(-c2ccccc2)c[nH]1 [Example 46, (1R)-N-benzyl-2-(1H-indol-3-yl)-N-methyl-1-(4-phenyl-1H-imidazol-2-yl)ethanamine] | 110 to 112
c1ccc(CN[C@H](Cc2ccccc2)c2nc(-c3ccccc3)c[nH]2)cc1 [Example 48, (1R)-N-benzyl-2-phenyl-1-(4-phenyl-1H-imidazol-2-yl)ethanamine] | 228 to 230
c1[nH]c([C@@H](NC2CCCCC2)C2CCCCC2)nc1C1CCCCC1 (as salt: hydrochloride) [Example 82, N-[(S)-cyclohexyl(4-cyclohexyl-1H-imidazol-2-yl)methyl]-cyclohexanamine] | 180 to 182
CC(C)(C)OC(=O)N(Cc1ccccc1)Cc1nc(-c2ccc(-c3ccccc3)cc2)c[nH]1 [Example 165, 4-(2-{[benzyl(tert-butoxycarbonyl)amino]methyl}-1H-imidazol-4-yl)-1,1′-biphenyl] | 130 to 132
C[C@@H](N)c1nc(-c2ccccc2)c[nH]1 (as salt: hydrochloride) [Example 219, (1R)-1-(4-phenyl-1H-imidazol-2-yl)ethanamine] | 178 to 181
c1ccc(-c2c[nH]c([C@@H](NC3CCC3)C3CCCCC3)n2)cc1 (as salt: hydrochloride) [Example 83, N-[(S)-cyclohexyl(4-phenyl-1H-imidazol-2-yl)methyl]-cyclobutanamine] | 210 to 212
N[C@H](CC1CCCCC1)c1nc(-c2ccc(F)cc2)c[nH]1 (as salt: hydrochloride) [Example 308, (1R)-2-cyclohexyl-1-[4-(4-fluorophenyl)-1H-imidazol-2-yl]ethanamine] | 148 to 149
Cc1[nH]c([C@@H](Cc2c[nH]c3ccccc23)NCc2ccccc2)nc1-c1ccccc1 [Example 95, (1R)-N-benzyl-2-(1H-indol-3-yl)-1-(5-methyl-4-phenyl-1H-imidazol-2-yl)ethanamine] | 120 to 122
CC(C)(C)OC(=O)N[C@H](CC1CCCCC1)c1nc(-c2ccccc2)c[nH]1 [Example 130, tert-butyl (1R)-2-cyclohexyl-1-(4-phenyl-1H-imidazol-2-yl)ethylcarbamate] | 184 to 185
CC(C)(C)OC(=O)N[C@H](Cc1c[nH]c2ccccc12)c1nc(-c2ccccc2)c[nH]1 [Example 96, tert-butyl (1R)-2-(1H-indol-3-yl)-1-(4-phenyl-1H-imidazol-2-yl)-ethylcarbamate] | 208 to 210
Fc1ccc(-c2c[nH]c([C@@H](NC3CCCCC3)C3CCCCC3)n2)cc1F [Example 287, N-{(S)-cyclohexyl[4-(3,4-difluorophenyl)-1H-imidazol-2-yl]methyl}cyclohexanamine] | 182.3
CCCCCCC(NC(=O)OC(C)(C)C)c1nc(-c2ccc(-c3ccccc3)cc2)c[nH]1 (racemic) [Example 192, (R,S)-4-(2-{1-[(tert-butoxycarbonyl)amino]heptyl}-1H-imidazol-4-yl)-1,1′-biphenyl] | 142 to 144
FC(F)(F)Oc1ccc(-c2c[nH]c([C@@H](NC3CCC3)C3CCCCC3)n2)cc1 [Example 270, N-((S)-cyclohexyl{4-[4-(trifluoromethoxy)phenyl]-1H-imidazol-2-yl}methyl)-cyclobutanamine] | 136 to 140
Fc1ccc(-c2c[nH]c([C@@H](NC3CCC3)C3CCCCC3)n2)cc1F [Example 262, N-{(S)-cyclohexyl[4-(3,4-difluorophenyl)-1H-imidazol-2-yl]methyl}cyclobutanamine] | 200 to 202
c1ccc(-c2c[nH]c([C@@H](NCC3CC3)C3CCCCC3)n2)cc1 (as salt: hydrochloride) [Example 267, (S)-cyclohexyl-N-(cyclopropylmethyl)(4-phenyl-1H-imidazol-2-yl)methanamine] | 151 to 152
c1ccc(CN[C@H](Cc2c[nH]c3ccccc23)c2nc(-c3ccccc3)c(-c3ccccc3)[nH]2)cc1 [Example 94, (1R)-N-benzyl-1-(4,5-diphenyl-1H-imidazol-2-yl)-2-(1H-indol-3-yl)ethanamine] | 146 to 148
Fc1ccc(-c2c[nH]c(C(NC3CCC3)C3CCCC3)n2)cc1 (racemic) [Example 274, (R,S)-N-{cyclopentyl[4-(4-fluorophenyl)-1H-imidazol-2-yl]methyl}cyclobutanamine] | 146 to 148
Brc1cccc(-c2c[nH]c([C@@H](NC3CCCCC3)C3CCCCC3)n2)c1 (as salt: hydrochloride) [Example 297, N-[(S)-[4-(3-bromophenyl)-1H-imidazol-2-yl](cyclohexyl)methyl]-cyclohexanamine] | 230.4
CN(CC#N)Cc1nc(-c2cc(C(C)(C)C)c(O)c(C(C)(C)C)c2)cs1 [Example 3, 2-[({4-[3,5-di(tert-butyl)-4-hydroxyphenyl]-1,3-thiazol-2-yl}methyl)(methyl)amino]acetonitrile] | 150 to 156

Next, values leading:

melting point [°C] | Structure (SMILES)
240 to 242 | NCc1nc(-c2ccc(-c3ccccc3)cc2)c[nH]1 (as salt: hydrochloride) [Example 141, (4-[1,1′-biphenyl]4-yl-1H-imidazol-2-yl)methanamine]
214 to 215 | O=C(NCCc1nc(-c2ccc(-c3ccc(Br)cc3)cc2)c[nH]1)OCC1CCC1 (as salt: hydrochloride) [Example 337, cyclobutylmethyl 2-[4-(4′-bromo-1,1′-biphenyl-4-yl)-1H-imidazol-2-yl]ethylcarbamate]
118 to 120 | CCCCCCC(NCCCCC)c1nc(-c2ccccc2)c[nH]1 (racemic) [Example 75, (R,S)-N-pentyl-1-(4-phenyl-1H-imidazol-2-yl)-1-heptanamine]
218 to 220 | CNCc1nc(-c2ccccc2)c(C)[nH]1 (as salt: hydrochloride) [Example 158, N-methyl-(5-methyl-4-phenyl-1H-imidazol-2-yl)methanamine]
150 | O=C(NCCc1nc(-c2ccc(-c3ccccc3)cc2)c[nH]1)OC1CCCCC1 [Example 269, 4-[2-(2-{[(cyclohexyloxy)carbonyl]amino}ethyl)-1H-imidazol-4-yl]-1,1′-biphenyl]
186 to 188 | CC(C)(C)CC(=O)NCCc1nc(-c2ccc(-c3ccccc3)cc2)c[nH]1 [Example 61, N-[2-(4-[1,1′-biphenyl]-4-yl-1H-imidazol-2-yl)ethyl]-3,3-dimethyl-butanamide]
> 250 | CC[C@H](N)c1nc(-c2ccc(-c3ccccc3)cc2)c[nH]1 (as salt: hydrochloride) [Example 196, (1S)-1-(4-[1,1′-biphenyl]-4-yl-1H-imidazol-2-yl)-1-propanamine]
127 to 128 | CCCCOC(=O)NCCc1nc(-c2ccc(-c3ccccc3)cc2)c(CC)[nH]1 [Example 453, butyl 2-[4-(1,1′-biphenyl-4-yl)-5-ethyl-1H-imidazol-2-yl]ethylcarbamate]
233 to 238 | c1ccc(CN[C@H](CC2CCCCC2)c2nc(-c3ccc(-c4ccccc4)cc3)c[nH]2)cc1 [Example 169, (1R)-N-benzyl-1-(4-[1,1′-biphenyl]-4-yl-1H-imidazol-2-yl)-2-cyclohexylethanamine]
142 to 143 | CC(C)(C)OC(=O)N[C@@H](Cc1c[nH]c2ccccc12)c1nc(-c2ccccc2)c(-c2ccccc2)[nH]1 [Example 147, tert-butyl (1S)-1-(4,5-diphenyl-1H-imidazol-2-yl)-2-(1H-indol-3-yl)ethylcarbamate]
110 to 114 | CCCCCCOC(=O)NCCc1nc(-c2ccc(N3CCCC3)cc2)c[nH]1 [Example 384, hexyl 2-[4-(4-pyrrolidin-1-ylphenyl)-1H-imidazol-2-yl]ethylcarbamate]
132 to 134 | CCCCCCN[C@@H](Cc1c[nH]c2ccccc12)c1nc(-c2ccccc2)c[nH]1 (as salt: hydrochloride) [Example 53, N-[(1S)-2-(1H-indol-3-yl)-1-(4-phenyl-1H-imidazol-2-yl)ethyl]-1-hexanamine]
126 | CCCCC(NC(=O)OC(C)(C)C)c1nc(-c2ccccc2)c[nH]1 (racemic) [Example 174, tert-butyl (R,S)-1-(4-phenyl-1H-imidazol-2-yl)pentylcarbamate]
178 to 180 | CCCCC(N)c1nc(-c2ccccc2)c[nH]1 (racemic) (as salt: hydrochloride) [Example 181, (R,S)-1-(4-phenyl-1H-imidazol-2-yl)pentylamine]
128.3 | CC(C)CCCOC(=O)NCCc1nc(-c2ccc(-c3ccccc3)cc2)c[nH]1 [Example 378, 4-methylpentyl 2-[4-(1,1′-biphenyl-4-yl)-1H-imidazol-2-yl]ethylcarbamate]
155 to 157 | CCCCCCC(NCc1ccccc1)c1nc(-c2ccccc2OC)c[nH]1 (racemic) [Example 201, (R,S)-N-benzyl-1-[4-(2-methoxyphenyl)-1H-imidazol-2-yl]-1-heptanamine]
126 to 128 | CCCCCCC(NCc1ccc(OC)cc1)c1nc(-c2ccccc2)c[nH]1 (racemic) [Example 227, (R,S)-N-(4-methoxybenzyl)-1-(4-phenyl-1H-imidazol-2-yl)-1-heptanamine]
160 to 162 | c1ccc(CNCc2nc(-c3ccccc3)c(-c3ccccc3)[nH]2)cc1 [Example 163, N-benzyl(4,5-diphenyl-1H-imidazol-2-yl)methanamine]
200 to 202 | CCCCC(NCc1ccccc1)c1nc(-c2ccccc2)c[nH]1 (racemic) [Example 186, (R,S)-N-benzyl-1-(4-phenyl-1H-imidazol-2-yl)-1-pentanamine]
99 to 100 | CCCCOC(=O)NCCc1nc(-c2ccc(Br)cc2)c[nH]1 [Example 299, butyl 2-[4-(4-bromophenyl)-1H-imidazol-2-yl]ethylcarbamate]

— patent publication US7291641B2, “Derivatives of heterocycles with 5 members, their preparation and their use as medicaments” (Societe de Conseils de Recherches et d'Applications …, priority 1999, dated 2007)
